Each structure is given as a SMILES string.

The IC50 is the point on the concentration scale where inhibition reaches its midpoint.

In this assay the target is T1, human acetyl-CoA carboxylase 2 (ACC2) (Homo sapiens, UniProt O00763).
T1 construct: The cDNA encoding amino acids 144 to 2458 of human acetyl-CoA carboxylase 2; made in house; host or cells: Sf9 insect cells (baculovirus, pFastBac1)
T1 sequence (O00763 144-2458): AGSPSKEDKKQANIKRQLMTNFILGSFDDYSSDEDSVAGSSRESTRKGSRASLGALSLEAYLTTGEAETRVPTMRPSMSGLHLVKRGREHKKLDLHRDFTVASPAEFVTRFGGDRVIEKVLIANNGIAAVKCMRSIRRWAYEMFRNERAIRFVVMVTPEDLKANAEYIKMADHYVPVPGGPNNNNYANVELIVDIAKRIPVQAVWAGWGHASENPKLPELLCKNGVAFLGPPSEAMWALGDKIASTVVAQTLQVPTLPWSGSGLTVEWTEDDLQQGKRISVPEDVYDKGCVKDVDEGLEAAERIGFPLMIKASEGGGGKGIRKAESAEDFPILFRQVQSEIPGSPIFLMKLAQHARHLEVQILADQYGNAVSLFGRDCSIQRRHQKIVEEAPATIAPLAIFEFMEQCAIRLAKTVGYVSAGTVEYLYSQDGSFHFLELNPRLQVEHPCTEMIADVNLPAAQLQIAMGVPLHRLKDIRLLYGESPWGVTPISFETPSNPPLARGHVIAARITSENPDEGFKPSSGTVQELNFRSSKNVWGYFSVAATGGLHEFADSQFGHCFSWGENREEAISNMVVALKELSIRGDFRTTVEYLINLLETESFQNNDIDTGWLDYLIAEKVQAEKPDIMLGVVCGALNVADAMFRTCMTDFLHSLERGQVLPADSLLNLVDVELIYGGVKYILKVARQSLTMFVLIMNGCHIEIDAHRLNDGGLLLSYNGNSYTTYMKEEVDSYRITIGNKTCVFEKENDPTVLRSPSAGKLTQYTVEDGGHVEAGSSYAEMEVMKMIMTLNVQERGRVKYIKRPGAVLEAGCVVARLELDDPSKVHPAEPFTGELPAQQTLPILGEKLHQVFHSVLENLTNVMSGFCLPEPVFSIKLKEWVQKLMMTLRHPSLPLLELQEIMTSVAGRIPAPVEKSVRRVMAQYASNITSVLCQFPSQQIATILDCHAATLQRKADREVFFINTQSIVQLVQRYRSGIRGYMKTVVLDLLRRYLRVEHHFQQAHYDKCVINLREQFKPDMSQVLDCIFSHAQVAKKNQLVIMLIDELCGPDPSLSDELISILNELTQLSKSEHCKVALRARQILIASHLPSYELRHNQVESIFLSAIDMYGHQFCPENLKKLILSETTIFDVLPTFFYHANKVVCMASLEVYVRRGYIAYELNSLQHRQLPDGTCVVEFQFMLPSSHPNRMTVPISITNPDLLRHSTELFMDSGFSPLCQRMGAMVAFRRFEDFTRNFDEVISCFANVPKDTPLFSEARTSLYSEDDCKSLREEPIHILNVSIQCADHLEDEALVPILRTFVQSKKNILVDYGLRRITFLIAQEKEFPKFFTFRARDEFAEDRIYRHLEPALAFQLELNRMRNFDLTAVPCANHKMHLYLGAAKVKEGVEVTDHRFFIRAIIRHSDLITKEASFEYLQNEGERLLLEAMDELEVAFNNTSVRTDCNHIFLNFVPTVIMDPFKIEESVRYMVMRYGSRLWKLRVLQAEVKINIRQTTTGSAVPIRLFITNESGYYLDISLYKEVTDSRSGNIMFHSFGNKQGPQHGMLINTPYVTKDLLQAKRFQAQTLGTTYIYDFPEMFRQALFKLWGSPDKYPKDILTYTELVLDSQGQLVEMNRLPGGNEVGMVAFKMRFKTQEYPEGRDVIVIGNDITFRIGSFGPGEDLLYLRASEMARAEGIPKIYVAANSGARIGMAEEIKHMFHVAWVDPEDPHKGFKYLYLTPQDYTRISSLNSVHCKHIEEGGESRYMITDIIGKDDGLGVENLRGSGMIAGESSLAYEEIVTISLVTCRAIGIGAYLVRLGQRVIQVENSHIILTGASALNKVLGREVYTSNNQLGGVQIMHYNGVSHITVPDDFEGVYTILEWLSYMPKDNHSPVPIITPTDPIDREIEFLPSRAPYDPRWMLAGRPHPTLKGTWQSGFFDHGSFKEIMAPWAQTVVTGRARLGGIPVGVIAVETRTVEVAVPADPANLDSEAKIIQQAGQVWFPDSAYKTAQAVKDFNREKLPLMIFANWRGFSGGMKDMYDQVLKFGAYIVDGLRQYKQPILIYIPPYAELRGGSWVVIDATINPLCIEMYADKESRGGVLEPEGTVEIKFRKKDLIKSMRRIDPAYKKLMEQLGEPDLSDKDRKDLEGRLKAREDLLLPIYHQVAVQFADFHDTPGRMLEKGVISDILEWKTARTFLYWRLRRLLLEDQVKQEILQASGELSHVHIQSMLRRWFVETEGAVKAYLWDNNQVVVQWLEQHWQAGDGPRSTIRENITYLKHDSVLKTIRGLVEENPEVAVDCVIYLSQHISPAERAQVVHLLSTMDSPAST
Description: Acetyl-CoA carboxylase enzyme assay (malonyl-CoA formation by LC/MS/MS). Type of assay: biochemical. The conditions noted are these: recombinant human ACC2 (aa 144-2458); read-out: IC50 ACC2. In short, it runs like this:
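Malonyl-CoA formation was read by LC/MS/MS MRM against a [13C3]-malonyl-CoA internal standard, after acetic acid quench. The enzyme was baculovirus/Sf9-expressed human ACC2 residues 144–2458, given 15 minutes room-temperature compound preincubation in HEPES pH 7.5 buffer with MgCl2, citrate and DTT. Substrate solution held 50 μM acetyl-CoA, 120 μM ATP and 2 mM KHCO3.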
For the molecule `CC(C)Cc1cc2ccc(S(=O)(=O)N[C@H]3CC[C@H](C(=O)N[C@H](C)c4ccc(F)cc4)CC3)cc2[nH]1` [Example 303, (1r,4R)-N-((R)-1-(4-fluorophenyl)ethyl)-4-(2-isobutyl-1H-indole-6-sulfonamido)cyclohexanecarboxamide], the IC50 amounted to 575 nM.
`C[C@@H](NC(=O)[C@H]1CC[C@H](NS(=O)(=O)c2cnc3c(c2)N(C)CCO3)CC1)c1ccc(F)cc1` [Example 131, (1r,4R)-N-((R)-1-(4-fluorophenyl)ethyl)-4-(1-methyl-2,3-dihydro-1H-pyrido[2,3-b][1,4]oxazine-7-sulfonamido)cyclohexanecarboxamide]: the IC50 turned out to be 173 nM.
As to `Cc1cccc(Nc2nc3cc(S(=O)(=O)Nc4ccc(C(=O)OC(C)C)cc4)ccc3[nH]2)c1` [Example 536, isopropyl 4-(2-(m-tolylamino)-1H-benzo[d]imidazole-5-sulfonamido)benzoate], the IC50 turned out to be 412 nM.
In the case of `COCc1ccc(-c2[nH]c3cc(S(=O)(=O)N[C@H]4CC[C@H](C(=O)N5CCOC[C@@H]5C5CC5)CC4)ccc3c2Cl)cc1` [Example 480, 3-chloro-N-((1S,4r)-4-((S)-3-cyclopropylmorpholine-4-carbonyl)cyclohexyl)-2-(4-(methoxymethyl)phenyl)-1H-indole-6-sulfonamide], the IC50 is less than 10 nM.
With `CC(C)OC(=O)c1ccc(NS(=O)(=O)c2ccc3nc(-c4ccc(Oc5ccccc5)cc4)[nH]c3c2)cc1` [Example 507, isopropyl 4-(2-(4-phenoxyphenyl)-1H-benzo[d]imidazole-6-sulfonamido)benzoate] the figure was 22100 nM.
The figure for `COCCOc1ccc(-c2cc3ccc(S(=O)(=O)N[C@H]4CC[C@H](C(=O)N5CCOC[C@@H]5C)CC4)cc3n2C)cc1` [Example 448, 2-(4-(2-methoxyethoxy)phenyl)-1-methyl-N-((1S,4r)-4-((S)-3-methylmorpholine-4-carbonyl)cyclohexyl)-1H-indole-6-sulfonamide] is 65 nM.
The figure for `COc1cccc(Nc2nc3cc(S(=O)(=O)Nc4ccc(C(=O)OC(C)C)cc4)ccc3[nH]2)c1` [Example 524, isopropyl 4-(2-(3-methoxyphenylamino)-1H-benzo[d]imidazole-5-sulfonamido)benzoate] is 360 nM; for `CC[C@@H](NC(=O)[C@H]1CC[C@H](NS(=O)(=O)c2cnc3ccccc3c2)CC1)c1ccccc1` [Example 56, (1r,4R)-N-((R)-1-phenylpropyl)-4-(quinoline-3-sulfonamido)cyclohexanecarboxamide] it is 189 nM.
In the case of `Cn1c(-c2ccccc2)cc2ccc(S(=O)(=O)N[C@H]3CC[C@H](C(=O)N4CCC[C@@H]4C(C)(C)O)CC3)cc21` [Example 443, N-((1R,4r)-4-((R)-2-(2-hydroxypropan-2-yl)pyrrolidine-1-carbonyl)cyclohexyl)-1-methyl-2-phenyl-1H-indole-6-sulfonamide], the IC50 stood at 30 nM.
Consider `C[C@@H](NC(=O)[C@H]1CC[C@H](NS(=O)(=O)c2ccc3c(c2)NC(=O)CO3)CC1)c1ccc(F)cc1` [Example 112, (1r,4R)-N-((R)-1-(4-fluorophenyl)ethyl)-4-(3-oxo-3,4-dihydro-2H-benzo[b][1,4]oxazine-6-sulfonamido)cyclohexanecarboxamide], for which the IC50 came to 344 nM.
The figure for `CN(C)CCNC(=O)[C@H]1CC[C@H](NS(=O)(=O)c2ccc3[nH]c(-c4ccccc4)nc3c2)CC1` [Example 631, (1r,4r)-N-(2-(dimethylamino)ethyl)-4-(2-phenyl-1H-benzo[d]imidazole-5-sulfonamido)cyclohexanecarboxamide] is 10300 nM.
With `C[C@@H](NC(=O)[C@H]1CC[C@H](NS(=O)(=O)c2ccc3nc(-c4ccccc4)cn3c2)CC1)c1ccc(F)cc1` [Example 79, (1r,4R)-N-((R)-1-(4-fluorophenyl)ethyl)-4-(2-phenylimidazo[1,2-a]pyridine-6-sulfonamido)cyclohexanecarboxamide] the figure was 115 nM; with `Cn1c(-c2ccc(CCC(=O)O)cc2)cc2ccc(S(=O)(=O)N[C@H]3CC[C@H](C(=O)N4CCC[C@@H]4C(C)(C)C)CC3)cc21` [Example 400, 3-(4-(6-(N-((1R,4r)-4-((R)-2-tert-butylpyrrolidine-1-carbonyl)cyclohexyl)sulfamoyl)-1-methyl-1H-indol-2-yl)phenyl)propanoic acid], less than 10 nM; with `C[C@@H](NC(=O)[C@H]1CC[C@H](NS(=O)(=O)c2ccc3nc(C4CCOCC4)[nH]c3c2)CC1)c1ccc(F)cc1` [Example 6, (1r,4R)—N—((R)-1-(4-fluorophenyl)ethyl)-4-(2-(tetrahydro-2H-pyran-4-yl)-1H-benzo[d]imidazole-6-sulfonamido)cyclohexanecarboxamide], 156 nM.
The figure for `COc1ccc(-c2cc3ccc(S(=O)(=O)N[C@H]4CC[C@H](C(=O)N5CCOC[C@@H]5C)CC4)cc3n2C)cc1` [Example 440, 2-(4-methoxyphenyl)-1-methyl-N-((1S,4r)-4-((S)-3-methylmorpholine-4-carbonyl)cyclohexyl)-1H-indole-6-sulfonamide] is 20 nM; for `COc1ccc(COC(=O)C2(C)CCC(NS(=O)(=O)c3ccc4c(ccn4C)c3)CC2)cc1` (centres unmarked) [Example 379, 4-methoxybenzyl 1-methyl-4-(1-methyl-1H-indole-5-sulfonamido)cyclohexanecarboxylate] it is 580 nM; for `C[C@@H](NC(=O)[C@H]1CC[C@H](NS(=O)(=O)c2ccc3[nH]c(Nc4cccc(C#N)c4)nc3c2)CC1)c1ccccc1` [Example 570, (1r,4R)-4-(2-(3-cyanophenylamino)-1H-benzo[d]imidazole-5-sulfonamido)-N-((R)-1-phenylethyl)cyclohexanecarboxamide] it is less than 10 nM.
Turning to `Cn1c(-c2ccccc2)cc2ccc(S(=O)(=O)NC3CCC(C(=O)NC4CCCCNC4=O)CC3)cc21` (centres unmarked) [Example 435, (1r,4r)-4-(1-methyl-2-phenyl-1H-indole-6-sulfonamido)-N-(2-oxoazepan-3-yl)cyclohexanecarboxamide], the half-inhibitory concentration (IC50) was 20 nM.
With `CN1CCN(c2ccc(-c3nc4cc(S(=O)(=O)N[C@H]5CC[C@H](c6nnc(C(C)(C)C)o6)CC5)ccc4[nH]3)cc2)CC1` [Example 10, N-((1r,4r)-4-(5-tert-butyl-1,3,4-oxadiazol-2-yl)cyclohexyl)-2-(4-(4-methylpiperazin-1-yl)phenyl)-1H-benzo[d]imidazole-5-sulfonamide] the figure was 115 nM; with `CC(NC(=O)[C@H]1CC[C@H](NS(=O)(=O)c2cnc3ccccc3c2)CC1)c1ccc(C(F)(F)F)cc1` (some centres unmarked) [Example 45, (1r,4r)-4-(quinoline-3-sulfonamido)-N-(1-(4-(trifluoromethyl)phenyl)ethyl)cyclohexanecarboxamide], greater than 35000 nM.
With `CC(C)OC(=O)c1ccc(NS(=O)(=O)c2ccc3[nH]c(Nc4cccc(C(C)O)c4)nc3c2)cc1` (centres unmarked) [Example 553, isopropyl 4-(2-(3-(1-hydroxyethyl)phenylamino)-1H-benzo[d]imidazole-5-sulfonamido)benzoate] the figure was 119 nM; with `C[C@@H](NC(=O)[C@H]1CC[C@H](NS(=O)(=O)c2ccc3c(c2)N(C)C(=O)CO3)CC1)c1ccc(F)cc1` [Example 156, (1r,4R)-N-((R)-1-(4-fluorophenyl)ethyl)-4-(4-methyl-3-oxo-3,4-dihydro-2H-benzo[b][1,4]oxazine-6-sulfonamido)cyclohexanecarboxamide], 183 nM.
The figure for `CCOc1ccc2cc(S(=O)(=O)N[C@H]3CC[C@H](C(=O)N[C@H](COC(=O)[C@@H](N)C(C)C)c4ccccc4)CC3)ccc2n1` [Example 266, (S)-((S)-2-((1r,4S)-4-(2-ethoxyquinoline-6-sulfonamido)cyclohexanecarboxamido)-2-phenylethyl) 2-amino-3-methylbutanoate] is 140 nM; for `O=C(NC1CC1)[C@H]1CC[C@H](NS(=O)(=O)c2ccc3[nH]c(-c4ccccc4)nc3c2)CC1` [Example 635, (1r,4r)-N-cyclopropyl-4-(2-phenyl-1H-benzo[d]imidazole-5-sulfonamido)cyclohexanecarboxamide] it is 256 nM; for `CCOc1ccc2cc(S(=O)(=O)N[C@H]3CC[C@H](C(=O)N[C@@H](c4ccccc4)[C@@H](C)O)CC3)ccc2n1` [Example 37, (1r,4S)-4-(2-ethoxyquinoline-6-sulfonamido)-N-((1S,2R)-2-hydroxy-1-phenylpropyl)cyclohexanecarboxamide] it is 75 nM.
On to `CC(C)[C@H](N)C(=O)OCc1ccc(-c2cc3ccc(S(=O)(=O)N[C@H]4CC[C@H](C(=O)N[C@H](C)c5ccc(F)cc5)CC4)cc3[nH]2)cc1` [Example 27, (S)-4-(6-(N-((1R,4r)-4-((R)-1-(4-fluorophenyl)ethylcarbamoyl)cyclohexyl)sulfamoyl)-1H-indol-2-yl)benzyl 2-amino-3-methylbutanoate], for which the half-inhibitory concentration (IC50) was less than 10 nM.
With `C[C@@H](NC(=O)[C@H]1CC[C@H](NS(=O)(=O)c2ccc3[nH]c([C@H]4CCCO4)nc3c2)CC1)c1ccc(F)cc1` [Example 117, (1r,4R)-N-((R)-1-(4-fluorophenyl)ethyl)-4-(2-((R)-tetrahydrofuran-2-yl)-1H-benzo[d]imidazole-5-sulfonamido)cyclohexanecarboxamide] the figure was 574 nM.
The figure for `COC(=O)c1ccc(COC(=O)[C@H]2CC[C@H](NS(=O)(=O)c3ccc4nc(-c5ccccc5)[nH]c4c3)CC2)cc1` [Example 101, methyl 4-(((1r,4r)-4-(2-phenyl-1H-benzo[d]imidazole-6-sulfonamido)cyclohexanecarbonyloxy)methyl)benzoate] is 1790 nM; for `CNCc1ccc(-c2nc3cc(S(=O)(=O)Nc4ccc(C(=O)OC(C)C)cc4)ccc3[nH]2)cc1` [Example 559, isopropyl 4-(2-(4-((methylamino)methyl)phenyl)-1H-benzo[d]imidazole-5-sulfonamido)benzoate] it is 163 nM.
